How the values were obtained:
DENV2 NGC [1] = assay: time-of-addition experiments, BHK21 cells, viral plaque assay; format: cell-based, dengue virus; details: 15 μM, BHK21, MOI 1, yield at 24 hpi
[2] = molecular target: recombinant, soluble DENV2 E protein (sE), prefusion (Dengue virus type 2, UniProt P14340); assay: Alphascreen assay, GNF2-biotin and prefusion sE; details: increasing concentrations, 20 nM to 10 μM
DENV2 NGC [3] = details: dose-response, inhibitor present during entire single round, MOI 1, 24 hpi
DENV2 NGC [4] = assay: low MOI multiple replication cycle infection experiment; format: cell-based, dengue virus; details: MOI 0.01, treatment delayed until 24 hpi; GNF-2 15 μM, 8b 5 μM; titers at 48, 72 hpi

NC(=O)c1cccc(-c2cc(Nc3ccc(OC(F)(F)F)cc3)ncn2)c1 [GNF-2]
antiviral effect when added post-infection (POST, 0-5 hours) (DENV2 NGC [1]): inhibit DENV2
antiviral effect when pre-incubated with viral inoculum (PRE virus) (DENV2 NGC [1]): additional antiviral activity
competition with GNF2-biotin for prefusion sE (Alphascreen signal) [2]: decrease the Alphascreen signal
antiviral activity in single-cycle virus yield reduction assay (DENV2 NGC [3]): more antiviral activity than imatinib
inhibition of DENV2 over multiple replication cycles (DENV2 NGC [4]): inhibit DENV2
